Results: patent US9688736B2, “Compound for treatment of severe hypoglycemia” (Eli Lilly and Company, priority 2013, dated 2017)
Read-outs that look alike come from different tables or passages of the source. Square brackets hold non-standard residues; d marks the D form. Peptide text beside a SMILES is read from it. Aib = CC(C)(N)C(=O)O

How the values were obtained:
male C57BL6 mice = assay: Effects of compound on blood glucose levels in C57/B16 male mice; assay type: in vivo; details: for Blood glucose levels after dosing: mean ± SEM, n=4
Description: To determine the effects of the compound of SEQ ID NO: 2 on blood glucose levels, the compound is administered to C57/B 16 mice. Three month old male C57BL6 mice (Harlan Laboratories) are used Animals are individually housed in a temperature-controlled (24° C.) facility with a 12 hour light/dark cycle, and have free access to food and water. After 1 week acclimation to the facility, mice are randomized to treatment groups (n=4/group). Test compound is formulated in Buffer 2 (see Physical stability test using Thioflavin T binding assay). On the morning of test, food is removed at 08:00 AM. Two hours after food is removed, the test compound is given subcutaneously at 0, 1, 3 or 10 μg/kg doses. Blood glucose is measured at time 0, 15, 30, 60 and 120 minutes after test compound administration with an ACCU-CHECK® (Roche Diagnostics) glucometer. […] Results are expressed as mean ±standard error mean (SEM) of 4 mice per group.
Blood glucose levels at 10 μg/kg of compound of SEQ ID NO: 2 is taken as the maximum value.

human GIP-R = target: T1, human GIP-R (Homo sapiens, UniProt P48546); assay: Glucose-dependent insulinotropic peptide receptor binding assay (SPA); details: CHO-S membranes, radioiodinated GIP
T1 construct: expressed in transfected cells; host or cells: CHO-S suspension cells (crude plasma membranes)
T1 sequence (P48546 22-466): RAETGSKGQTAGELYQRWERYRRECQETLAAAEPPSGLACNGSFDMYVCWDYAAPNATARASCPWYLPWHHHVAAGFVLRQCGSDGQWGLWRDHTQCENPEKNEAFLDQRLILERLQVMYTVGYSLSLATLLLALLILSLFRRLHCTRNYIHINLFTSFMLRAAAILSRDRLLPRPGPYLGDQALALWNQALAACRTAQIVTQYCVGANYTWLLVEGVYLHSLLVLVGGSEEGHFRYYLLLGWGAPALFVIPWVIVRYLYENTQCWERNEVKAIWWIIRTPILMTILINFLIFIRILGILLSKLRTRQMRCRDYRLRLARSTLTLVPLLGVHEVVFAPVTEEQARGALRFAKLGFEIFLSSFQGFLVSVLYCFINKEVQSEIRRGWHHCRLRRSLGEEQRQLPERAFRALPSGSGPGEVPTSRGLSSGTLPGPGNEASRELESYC

[1] = Physical stability test using Thioflavin T binding assay (fibrillation); assay type: physicochemical; details: 25° C.; for Thioflavin T fluorescence: 1 mg/mL, stirred 300 rpm
Description: Fibrillation is a common problem when glucagon is formulated in aqueous solution. To assess the level of fibrillation of the compound of the present invention, a Thioflavin T binding assay is performed.
All samples are mechanically stressed at 25° C. in a magnetic stir plate set at 300 rpm. […] Raw data is collected with Softmax Pro 5.4.1 (Molecular Devices) and imported to Excel.

[2] = target: T2, human glucagon receptor (hGR) (Homo sapiens, UniProt P47871); assay: Human glucagon receptor binding assay (SPA); details: 293HEK membranes, 125I-labelled glucagon
T2 construct: expressed in transfected cells; host or cells: 293HEK (crude plasma membranes)
Description: Plates are sealed, mixed end over end, and read with a MicroBeta® scintillation counter after 12 hours of settling time at room temperature.

[3] = target: T3, human glucagon-like peptide 1 receptor (hGLP-1R) (Homo sapiens, UniProt P43220); assay: Glucagon-like-peptide 1 receptor binding assay (SPA); details: 293HEK membranes, 125I-labelled GLP-1 amide
T3 construct: expressed in transfected cells; host or cells: 293HEK suspension cells (crude plasma membranes)

[4] = assay type: physicochemical
Description: The compound of SEQ ID NO: 2 is dissolved in 20 mM Tris-HCl/H2O, pH 8 to a 1 mg/mL concentration (peptide content), and filtered through a 0.22 micron filter (Millex, SLGV004SL). Solution is transferred to three vials: one for 4° C.; one for 30° C. and one for 40° C. […]. Samples are visually assessed at different time points for turbidity and phase separation.

[5] = target: T2, human glucagon receptor (hGR); assay: Human glucagon receptor stimulated cAMP functional assay; assay type: cell-based; details: hGR-HEK293 cells, relative EC50, HTRF cAMP
Description: Cells are stimulated with glucagon, buffer controls, or Test samples, and the cAMP generated within the cell is quantitated using the CisBio cAMP Dynamic 2 HTRF Assay Kit (62AM4PEC). Briefly, cAMP levels within the cell are detected by binding to the cAMP-d2 capture antibody in the presence of cell lysis buffer. A second detection antibody provided in the kit, anti-cAMP Cryptate, is added to create a competitive sandwich assay. When the detection antibody complex formed there is an increase in the signal that is measured on a Perkin-Elmer Envision® instrument.
The hGR-HEK293 cells are harvested from sub-confluent tissue culture dishes with Enzyme-Free Cell Dissociation Solution (Specialty Media 5-004-B). The cells are pelleted at 100× g at room temperature for 5 minutes then washed twice with phosphate buffered saline (PBS). […] The cells are then pelleted at 100× g at room temperature for 5 minutes. […] Test samples are prepared as 2 mM stocks in DMSO and frozen at −20° C. until needed. […] The reaction is stopped by addition of 20 μL of the cAMP-d2-capture antibody (CisBio) diluted into the CisBio lysis buffer then gently mixed in [sequence] shaker. […] The lysed cell and antibody mixtures are read after 1 hour at room temperature using the Perkin-Elmer Envision®. […]

[6] = target: T4, mouse glucagon receptor (mGR) (Mus musculus, UniProt Q61606); assay: Mouse glucagon receptor binding assay (SPA); details: 293HEK membranes, 125I-labelled glucagon
T4 construct: expressed in transfected cells; host or cells: 293HEK cells in suspension culture (crude plasma membranes)

[7] = pH 8, 120 hours, mechanical stress

T2 sequence (P47871 26-477): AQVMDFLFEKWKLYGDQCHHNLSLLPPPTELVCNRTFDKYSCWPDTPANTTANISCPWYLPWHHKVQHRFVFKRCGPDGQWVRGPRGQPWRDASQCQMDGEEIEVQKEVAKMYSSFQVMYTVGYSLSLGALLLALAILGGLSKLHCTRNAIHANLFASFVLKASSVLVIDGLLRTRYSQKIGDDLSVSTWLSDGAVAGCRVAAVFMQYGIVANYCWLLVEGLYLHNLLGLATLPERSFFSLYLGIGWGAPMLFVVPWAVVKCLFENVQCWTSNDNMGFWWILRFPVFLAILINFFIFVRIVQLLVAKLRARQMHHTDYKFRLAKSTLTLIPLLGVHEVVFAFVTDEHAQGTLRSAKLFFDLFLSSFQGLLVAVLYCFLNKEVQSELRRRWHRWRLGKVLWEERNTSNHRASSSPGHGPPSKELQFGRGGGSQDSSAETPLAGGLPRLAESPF
T3 sequence (P43220 24-463): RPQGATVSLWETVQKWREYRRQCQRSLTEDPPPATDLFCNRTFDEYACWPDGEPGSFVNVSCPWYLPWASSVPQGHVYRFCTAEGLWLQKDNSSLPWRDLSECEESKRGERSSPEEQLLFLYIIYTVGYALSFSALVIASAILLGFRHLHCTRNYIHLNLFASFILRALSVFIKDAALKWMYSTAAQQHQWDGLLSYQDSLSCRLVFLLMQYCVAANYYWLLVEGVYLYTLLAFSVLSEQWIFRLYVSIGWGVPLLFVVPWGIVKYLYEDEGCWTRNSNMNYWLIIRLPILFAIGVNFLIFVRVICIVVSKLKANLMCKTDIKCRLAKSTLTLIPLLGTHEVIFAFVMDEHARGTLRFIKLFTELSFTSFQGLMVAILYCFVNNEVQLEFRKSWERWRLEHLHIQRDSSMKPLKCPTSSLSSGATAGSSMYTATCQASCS
T4 sequence (Q61606 27-485): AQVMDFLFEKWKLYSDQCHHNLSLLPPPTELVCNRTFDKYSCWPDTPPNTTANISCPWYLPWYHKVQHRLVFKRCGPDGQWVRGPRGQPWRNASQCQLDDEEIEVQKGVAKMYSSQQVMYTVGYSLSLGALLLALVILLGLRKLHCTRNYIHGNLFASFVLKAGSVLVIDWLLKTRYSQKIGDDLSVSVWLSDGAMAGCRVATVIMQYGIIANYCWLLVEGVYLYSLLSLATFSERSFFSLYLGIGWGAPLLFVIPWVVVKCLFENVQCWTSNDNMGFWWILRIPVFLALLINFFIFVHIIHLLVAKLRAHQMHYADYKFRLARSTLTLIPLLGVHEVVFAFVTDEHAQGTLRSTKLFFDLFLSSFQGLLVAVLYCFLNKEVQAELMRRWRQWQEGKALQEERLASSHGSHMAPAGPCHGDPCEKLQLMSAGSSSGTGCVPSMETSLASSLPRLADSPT

CC(C)C[C@H](NC(=O)[C@H](Cc1c[nH]c2ccccc12)NC(=O)[C@H](C)NC(=O)[C@@H](NC(=O)[C@H](Cc1ccccc1)NC(=O)[C@H](CCC(=O)O)NC(=O)[C@H](C)NC(=O)[C@H](C)NC(=O)[C@H](CCCCN)NC(=O)[C@H](CCCCN)NC(=O)C(C)(C)NC(=O)[C@H](CC(=O)O)NC(=O)[C@H](CC(C)C)NC(=O)[C@H](Cc1ccc(O)cc1)NC(=O)[C@H](CCCCN)NC(=O)[C@H](CO)NC(=O)[C@@H](NC(=O)[C@H](CC(=O)O)NC(=O)[C@H](CO)NC(=O)[C@@H](NC(=O)[C@H](Cc1ccccc1)NC(=O)[C@@H](NC(=O)CNC(=O)[C@H](Cc1c[nH]cn1)NC(=O)[C@H](CO)NC(=O)[C@@H](N)Cc1ccc(O)cc1)[C@@H](C)O)[C@@H](C)O)C(C)C)C(C)C)C(=O)N[C@@H](CC(C)C)C(=O)N[C@@H](CCC(=O)O)C(=O)N[C@@H](CCC(=O)O)C(=O)O [SEQ ID NO: 2] (H-YSHGTFTSDVSKYLD[Aib]KKAAEFVAWLLEE-OH; N-terminus assumed)
Blood glucose levels after dosing (male C57BL6 mice; 1 μg/kg subcutaneously, 0 minutes): 132.0 ± 4.1 mg/dL | Blood glucose levels after dosing (male C57BL6 mice; 1 μg/kg subcutaneously, 15 minutes): 203.0 ± 15.8 mg/dL | Blood glucose levels after dosing (male C57BL6 mice; 1 μg/kg subcutaneously, 30 minutes): 220.4 ± 21.4 mg/dL | Blood glucose levels after dosing (male C57BL6 mice; 1 μg/kg subcutaneously, 60 minutes): 171.6 ± 10.2 mg/dL | Blood glucose levels after dosing (male C57BL6 mice; 1 μg/kg subcutaneously, 120 minutes): 168.9 ± 3.7 mg/dL | Blood glucose levels after dosing (male C57BL6 mice; 3 μg/kg subcutaneously, 0 minutes): 147.8 ± 2.6 mg/dL | Blood glucose levels after dosing (male C57BL6 mice; 3 μg/kg subcutaneously, 15 minutes): 246.4 ± 13.1 mg/dL | Blood glucose levels after dosing (male C57BL6 mice; 3 μg/kg subcutaneously, 30 minutes): 274.9 ± 16.3 mg/dL | Blood glucose levels after dosing (male C57BL6 mice; 3 μg/kg subcutaneously, 60 minutes): 201.1 ± 13.2 mg/dL | Blood glucose levels after dosing (male C57BL6 mice; 3 μg/kg subcutaneously, 120 minutes): 172.8 ± 8.9 mg/dL | Blood glucose levels after dosing (male C57BL6 mice; 10 μg/kg subcutaneously, 0 minutes): 146.0 ± 8.2 mg/dL | Blood glucose levels after dosing (male C57BL6 mice; 10 μg/kg subcutaneously, 15 minutes): 257.3 ± 7.7 mg/dL | Blood glucose levels after dosing (male C57BL6 mice; 10 μg/kg subcutaneously, 30 minutes): 294.0 ± 13.3 mg/dL | Blood glucose levels after dosing (male C57BL6 mice; 10 μg/kg subcutaneously, 60 minutes): 222.2 ± 13.9 mg/dL | Blood glucose levels after dosing (male C57BL6 mice; 10 μg/kg subcutaneously, 120 minutes): 147.0 ± 6.7 mg/dL | ED50 (blood glucose increase) (male C57BL6 mice; calculated on the 30 minute glucose measurements, 10 μg/kg taken as maximum, subcutaneous): 3.34 µg/kg | Ki (human GIP-R): > 2240 nM | Fibrillation as measured by the Thioflavin T binding assay [1, 7]: did not demonstrate significant fibrillation | Physical stability by visual assessment and Thioflavin T binding [1, 7]: maintains physical stability | Thioflavin T fluorescence ([1]; Buffer 1 (20 mM Tris-HCl pH 8.0), t = 0 h): 193.9 flurescence units | Thioflavin T fluorescence ([1]; Buffer 1 (20 mM Tris-HCl pH 8.0), t = 40 h): 201.6 flurescence units | Thioflavin T fluorescence ([1]; Buffer 1 (20 mM Tris-HCl pH 8.0), t = 120 h): 226.1 flurescence units | Thioflavin T fluorescence ([1]; Buffer 2 (20 mM Tris-HCl, 150 nM NaCl, pH 8.0), t = 0 h): 182.2 flurescence units | Thioflavin T fluorescence ([1]; Buffer 2 (20 mM Tris-HCl, 150 nM NaCl, pH 8.0), t = 40 h): 210.1 flurescence units | Thioflavin T fluorescence ([1]; Buffer 2 (20 mM Tris-HCl, 150 nM NaCl, pH 8.0), t = 120 h): 213.6 flurescence units | Thioflavin T fluorescence ([1]; Buffer 3 (20 mM Tris-HCl, 300 mM sucrose, pH 8.0), t = 0 h): 263.3 flurescence units | Thioflavin T fluorescence ([1]; Buffer 3 (20 mM Tris-HCl, 300 mM sucrose, pH 8.0), t = 40 h): 297.0 flurescence units | Thioflavin T fluorescence ([1]; Buffer 3 (20 mM Tris-HCl, 300 mM sucrose, pH 8.0), t = 120 h): 310.9 flurescence units | Thioflavin T fluorescence ([1]; Buffer 4 (20 mM Tris-HCl, 300 mM sorbitol, pH 8.0), t = 0 h): 260.9 flurescence units | Thioflavin T fluorescence ([1]; Buffer 4 (20 mM Tris-HCl, 300 mM sorbitol, pH 8.0), t = 40 h): 285.1 flurescence units | Thioflavin T fluorescence ([1]; Buffer 4 (20 mM Tris-HCl, 300 mM sorbitol, pH 8.0), t = 120 h): 311.2 flurescence units | Thioflavin T fluorescence ([1]; Buffer 5 (20 mM Tris-HCl, 0.02% Tween 80, pH 8.0), t = 0 h): 251.7 flurescence units | Thioflavin T fluorescence ([1]; Buffer 5 (20 mM Tris-HCl, 0.02% Tween 80, pH 8.0), t = 40 h): 281.7 flurescence units | Thioflavin T fluorescence ([1]; Buffer 5 (20 mM Tris-HCl, 0.02% Tween 80, pH 8.0), t = 120 h): 306.8 flurescence units | Ki [2]: 3.2 ± 0.76 nM | Ki [3]: > 3380 nM | 4° C. % Main Peak 4 wk ([4]; RP-HPLC, pH 8, 4° C., 4 wk): 95.94% | 30° C. % Main Peak 4 wk ([4]; RP-HPLC, pH 8, 30° C., 4 wk): 93.73% | 40° C. % Main Peak 4 wk ([4]; RP-HPLC, pH 8, 40° C., 4 wk): 89.54% | % Main Peak Day 0 ([4]; RP-HPLC, pH 8, day 0): 96.26% | Solubility by visual assessment and RP-HPLC ([4]; pH 8): maintains good solubility | RP-HPLC main peak change ([4]; pH 8, 4-wk 30° C. vs 4° C.): < 2.5% | RP-HPLC main peak change ([4]; pH 8, 4-wk 40° C. vs 4° C.): < 7% | 30° C. vs 4° C. Recovery 4 wk ([4]; pH 8, total peak area, 4 wk): 101% | 40° C. vs 4° C. Recovery 4 wk ([4]; pH 8, total peak area, 4 wk): 99% | EC50 [5]: 0.0658 ± 0.0167 nM | Ki [6]: 8.63 ± 0.71 nM
